Laboratory results: paper PMC6981144 (Nature Communications, 2020)
Values joined by “and” are separate entries in the source; they are usually repeats but may differ in a detail not shown here. Equal entries are not always repeated.

Key:
GLP1R [1] = assay: Insulin secretion in isolated Glp1r+/+ and Glp1r(GE)−/− islets; format: cell-based, mouse; conditions: for Insulin (secreted/total): G16.7+Ex4 (10 nM), individual repeats, listed as Ex4
From the text: For all statistical tests, *P < 0.05, **P < 0.01 and NS, non-significant. […] Mean ± s.e.m. are shown. Source data are provided as a Source Data file.

GLP1R [2] = target: T1, GLP1R (Homo sapiens, UniProt P43220); assay: HTRF cAMP assay in HEK293-SNAP_GLP1R cells, agonist and antagonist modes, with or without PAM BETP; format: cell-based; conditions: n = 4 independent assays; for antagonist properties against GLP-1-induced cAMP production: applied at 1 µM, 30 min GLP-1 stimulation; for agonist or partial agonist activity (cAMP): ligand alone, 30 min
T1 construct: expressed in transfected cells
T1 sequence (P43220 24-463): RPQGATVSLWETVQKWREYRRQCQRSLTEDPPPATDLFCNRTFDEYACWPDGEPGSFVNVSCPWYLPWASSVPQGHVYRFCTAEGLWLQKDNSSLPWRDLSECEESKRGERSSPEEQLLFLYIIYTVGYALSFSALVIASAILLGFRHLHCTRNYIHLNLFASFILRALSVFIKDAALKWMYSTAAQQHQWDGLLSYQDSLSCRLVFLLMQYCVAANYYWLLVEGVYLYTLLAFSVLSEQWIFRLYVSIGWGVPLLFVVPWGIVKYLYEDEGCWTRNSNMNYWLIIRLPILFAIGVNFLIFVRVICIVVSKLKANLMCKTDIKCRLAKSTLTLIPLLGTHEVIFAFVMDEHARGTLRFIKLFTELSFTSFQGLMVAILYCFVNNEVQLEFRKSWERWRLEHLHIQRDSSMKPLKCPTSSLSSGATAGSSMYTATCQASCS
Description: (§1) Mean ± s.e.m. are shown. **P < 0.01 for all statistical tests. Source data are provided as a Source Data file.
Potency for cAMP generation and inhibition was tested in heterologous expression systems, comprising either stable CHO-K1-SNAP_GLP1R or HEK-SNAP_GLP1R cells, or transiently transfected YFP-AD293-SNAP_GLP1R cells. Briefly, cells were incubated with increasing concentrations of compound with and without allosteric modulator for 30 min, before harvesting, lysis and measurement of cAMP using either cAMP-Glo^TM (Promega) or HTRF (Cisbio) assays, according to the manufacturer’s instructions. All assays were performed in the presence of 100–500 µM IBMX to inhibit phosphodiesterase activity. EC50 values were calculated using log concentration–response curves fitted with a three-parameter or four-parameter equation. […]
pharmacology. HTRF cAMP assays in HEK-SNAP_GLP1R cells in agonist and antagonist modes, stimulated with ligand for 30 min. Note that LUXendins are GLP1R antagonists […]
are shown. Source data are provided as a Source Data file.
(1 picture or pasted object on this page, not shown here)

GLP1R [3] = assay: Surface GLP1R expression in islets, GLP1R monoclonal antibody staining; format: cell-based, mouse; conditions: LUXendin555 250 nM, LUXendin645 100 nM, Ex9 250 nM
From the text: as §1

GLP1R [4] = assay: cAMP imaging in islets with FRET probe Epac2-camps; format: cell-based, mouse; conditions: Glp1r+/+ versus Glp1r(GE)−/− islets
From the text: Islets were transduced with adenovirus harboring the FRET sensor, Epac2-camps[56] (a kind gift from Prof. Dermot Cooper, University of Cambridge), before imaging using a Crest X-Light spinning disk system coupled to a Nikon Ti-E base and ×10/0.4 NA objective. Excitation was delivered at λ = 430–450 nm using a Lumencor Spectra X light engine. Emitted signals were detected at λ = 460–500 and λ = 520–550 nm for Cerulean and Citrine, respectively, using a Photometrics Delta Evolve EM-CCD. Imaging was performed in HEPES–bicarbonate buffer, containing (in mmol/L) 120 NaCl, 4.8 KCl, 24 NaHCO3, 0.5 Na2HPO4, 5 HEPES, 2.5 CaCl2, 1.2 MgCl2, and 3–17 D-glucose.

Substance: Exendin4(1–39)
- Exendin4(1–39)-stimulated insulin secretion in Glp1r(GE)−/− islets (GLP1R [1]; Ex4 10 nM): absence of Exendin4(1–39)-stimulated insulin secretion
- Insulin (secreted/total) (GLP1R [1]; KO islets): 0.004511 and 0.004222 and 0.01074 and 0.01469 and 0.006361 and 0.004456 and 0.008025 and 0.00578 and 0.004129 and 0.001581 and 0.003759 and 0.00219 and 0.001686 and 0.003265 and 0.005154 and 0.02304 and 0.01055 and 0.00295
- Insulin (secreted/total) (GLP1R [1]; WT islets): 0.004112 and 0.004627 and 0.005837 and 0.009517 and 0.006319 and 0.005338 and 0.01271 and 0.01517 and 0.02135 and 0.009713 and 0.003732 and 0.0026 and 0.01717 and 0.03657 and 0.02723 and 0.004332

Substance: Exendin4(9–39)
- antagonist properties against GLP-1-induced cAMP production (GLP1R [2]): similarly blocked
- agonist or partial agonist activity (cAMP) (GLP1R [2]): No agonist or partial agonist activity was detected
- GLP1R surface expression in islets (GLP1R [3]): no differences

Substance: Liraglutide (HAEGTFTSDVSSYLEGQAAKEFIAWLVRGRG; chains of the INN, looked up) [incretin-mimetic]
- stimulation of cAMP rises in islets (GLP1R [4]): only able to stimulate cAMP rises in islets from wild-type

Substance: S39C-Exendin4(9–39): S39C mutant of Exendin4(9–39) with a C-terminal thiol handle
- antagonist properties against GLP-1-induced cAMP production (GLP1R [2]): similarly blocked
- agonist or partial agonist activity (cAMP) (GLP1R [2]): No agonist or partial agonist activity was detected
